The text below walks through data of patent publication US20250059198A1, “BRM DEGRADING COMPOUNDS AND ASSOCIATED METHODS OF USE” (Arvinas Operations, Inc., priority 2021, published 2025).

Molecules are shown by their SMILES.

This assay has as its target T1, BRM (Homo sapiens, UniProt P51531).
T1 construct: Western Blot Screen of BRM Degradation in SW1573 Cells; endogenous in cells; host or cells: SW1573 cells
In words: BRM degradation (Dmax and DC50) in SW1573 cells, Western blot screen / In-Cell Western screen. The following applies: overnight (18-20 hours) treatment; for Dmax: read-out: Dmax (%)** (% degraded). The class given is cell-based. The method, then:
To assess BRM degradation (Dmax and DC50) cells were seeded at 8000/well in 96-well black/clear-bottom plates in 180 μL DMEM growth media (containing 1% pen-strep, 1% HEPES and 10% FBS) per well. Plates were incubated overnight to allow adhesion. The next morning cells were treated by adding 20 μL of 10× target compound concentration (1% DMSO) to appropriate wells and returned to incubator for overnight (18-20 hours). The final DMSO concentration was 0.1%.
For lysing, adherent cells were washed once with 100 μL of DPBS. Cells were lysed in 40 μL of 1×RIPA+HALT protease inhibitor on ice for 10 minutes and frozen until use at −80° C. Thawed lysates were cleaned by filtration in 1.2 µm filter plates, or alternatively, were spun clean at 2300 g at 4° C. for 30 minutes.
For blotting, for each Western sample 30 μL of lysate was added to 10 μL of 4× LDS sample buffer, then denatured at 95° C. for 5 minutes in the thermal cycler and placed on ice. Samples were loaded on 4-15% Tris/Glycine gels and run for 25 minutes at 250 constant volts in 1× Tris/Glycine buffer with 4 μL of ladder and 12 μL of each sample loaded for each blot. Protein was transferred from gels to NC with BioRad Turbo dry-transfer unit with the Turbo/midi default program. All blots were rinsed with ddH2O and blocked for 1 hour at room temperature in 5% BSA in TBST (0.1%) on rocker. Blots were exposed to primary antibody in 5% BSA in TBST (0.1%) overnight at 4° C. on rocker (1:1000 for BRM (Cell Signaling Tech. cat #11966) and 1:2000 for alpha-tubulin (Cell Signaling Tech. cat #3873), a control protein. Blot was washed with TBST (0.1%) three times for 5 minutes on rocker at room temperature. Secondary antibody was added, and blots were incubated on a room temperature rocker for 1 hour with 1:18,000 anti-rabbit-HRP and/or anti-mouse-HRP in 5% BSA in TBST (0.1%). Blots were washed three times in TBST (0.1%) for 5 minutes at room temperature on the rocker. Signal was developed with Femto Maximum Sensitivity substrate for 4 minutes and blots read on ChemiDoc™.
To assess BRM degradation (Dmax and DC50), cells were seeded at 8000/well in 96-well black/clear-bottom plates in 180 μL DMEM growth media (containing 1% pen-strep, 1% HEPES and 10% FBS) per well. Plates were incubated overnight to allow adhesion. The next morning cells were treated by adding 20 μL of 10× compound (1% DMSO) to appropriate wells and returned to incubator for overnight (18-20 hours). The final DMSO concentration was 0.1%.
For processing, the plates were removed from incubator, the media was removed, and immediately 200 μL of cold (4° C.) DPBS was added to all wells. DPBS was then removed, and 50 μL of 4% paraformaldehyde (PFA) in DPBS (4° C.) was added to all wells, and the plates were incubated at room temperature for 20 minutes. PFA was then removed, and 200 μL of TBS-T containing 0.5% Triton X-100 was added to all wells, and the plates were incubated at room temperature for 30 minutes. TBS-T containing 0.5% Triton X-100 was then removed, and 50 μL of Li-Cor blocking solution was added, and the plates were incubated at room temperature for a minimum of one hour. The blocking solution was removed, and 50 μL of Li-Cor blocking solution containing primary antibody cocktail was added (1:1000 for BRM (Cell Signaling Tech. cat #11966) and 1:2000 for alpha-tubulin (Sigma cat #T6074), a control protein. Plates were then placed in cold room until the next day.
The next day plates were washed three times with TBS-T, 200 μL per well. Fifty […] of secondary antibody cocktail in LI-COR blocking solution (anti-rabbit_800 nm and anti-mouse_680 nm) was added to all wells (diluted 1:5000). The plates were incubated at room temperature for at least one hour while protected from light. The plates were washed twice with TBS-T, 200 μL per well.
To read each plate TBS-T was removed, and each plate was inverted tapped on a paper towel. […]
In general terms: Immunoblotting shows a protein as a band on a membrane.

One may read the DC50 as the concentration giving 50% degradation. Read a high DC50 as a less potent degrader. In general, Dmax refers to the greatest extent of degradation seen.

T1 sequence (P51531 whole entry): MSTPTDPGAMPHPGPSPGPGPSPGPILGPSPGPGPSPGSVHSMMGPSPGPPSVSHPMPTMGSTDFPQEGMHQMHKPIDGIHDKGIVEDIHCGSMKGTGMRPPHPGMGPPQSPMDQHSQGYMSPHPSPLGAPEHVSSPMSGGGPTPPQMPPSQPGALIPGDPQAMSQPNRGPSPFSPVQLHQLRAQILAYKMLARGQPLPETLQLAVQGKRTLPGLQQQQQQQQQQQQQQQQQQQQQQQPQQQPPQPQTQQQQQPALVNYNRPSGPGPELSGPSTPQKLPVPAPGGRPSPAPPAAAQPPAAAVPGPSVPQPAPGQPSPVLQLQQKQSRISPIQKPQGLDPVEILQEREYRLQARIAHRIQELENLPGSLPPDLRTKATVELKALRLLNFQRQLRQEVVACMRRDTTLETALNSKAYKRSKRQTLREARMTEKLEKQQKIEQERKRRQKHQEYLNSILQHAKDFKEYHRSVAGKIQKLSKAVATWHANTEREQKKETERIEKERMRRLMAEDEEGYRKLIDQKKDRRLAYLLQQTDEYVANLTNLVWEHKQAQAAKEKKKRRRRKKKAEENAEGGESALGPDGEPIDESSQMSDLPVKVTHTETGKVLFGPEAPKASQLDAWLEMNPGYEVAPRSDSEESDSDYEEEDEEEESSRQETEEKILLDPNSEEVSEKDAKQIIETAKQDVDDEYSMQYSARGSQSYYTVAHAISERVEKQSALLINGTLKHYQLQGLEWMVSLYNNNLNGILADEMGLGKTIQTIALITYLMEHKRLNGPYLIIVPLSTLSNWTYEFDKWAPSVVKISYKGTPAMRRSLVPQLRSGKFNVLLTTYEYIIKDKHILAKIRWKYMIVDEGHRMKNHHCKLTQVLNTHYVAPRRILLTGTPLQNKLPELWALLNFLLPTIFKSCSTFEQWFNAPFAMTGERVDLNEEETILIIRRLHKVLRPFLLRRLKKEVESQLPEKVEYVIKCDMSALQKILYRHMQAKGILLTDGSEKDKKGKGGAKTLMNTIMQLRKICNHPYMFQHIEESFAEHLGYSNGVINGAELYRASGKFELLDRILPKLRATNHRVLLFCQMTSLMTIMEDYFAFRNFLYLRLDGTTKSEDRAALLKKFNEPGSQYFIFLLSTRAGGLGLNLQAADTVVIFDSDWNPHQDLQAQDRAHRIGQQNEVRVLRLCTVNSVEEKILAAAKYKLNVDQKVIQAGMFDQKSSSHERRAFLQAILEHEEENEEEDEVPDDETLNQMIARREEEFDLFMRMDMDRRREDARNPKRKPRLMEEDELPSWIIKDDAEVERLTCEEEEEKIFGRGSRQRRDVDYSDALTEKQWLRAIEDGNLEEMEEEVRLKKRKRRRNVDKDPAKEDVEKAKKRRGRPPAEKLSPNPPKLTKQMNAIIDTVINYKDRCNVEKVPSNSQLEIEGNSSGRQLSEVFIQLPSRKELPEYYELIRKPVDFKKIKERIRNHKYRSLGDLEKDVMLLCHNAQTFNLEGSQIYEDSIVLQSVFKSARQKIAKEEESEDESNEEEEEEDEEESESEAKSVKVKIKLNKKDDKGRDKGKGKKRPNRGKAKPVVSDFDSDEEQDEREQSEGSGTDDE

For `CC(C)[C@@H](C(=O)N1C[C@H](O)C[C@H]1C(=O)N[C@@H](C)c1ccc(Cl)cc1)c1cc(N2CCC(CN3CCC(O[C@H]4C[C@H](Oc5cc(N6C7CCC6CN(c6cc(-c8ccccc8O)nnc6N)C7)ccn5)C4)CC3)CC2)no1` (relative stereo) [Compound 48, (2S,4R)-N-[(1S)-1-(4-chlorophenyl)ethyl]-4-hydroxy-1-[(2R*)-3-methyl-2-{3-[4-({4-[(1rs,3rs)-3-[(4-{3-[3-amino-6-(2-hydroxyphenyl)pyridazin-4-yl]-3,8-diazabicyclo[3.2.1]octan-8-yl}pyridin-2-yl)oxy]cyclobutoxy]piperidin-1-yl}methyl)piperidin-1-yl]-1,2-oxazol-5-yl}butanoyl]pyrrolidine-2-carboxamide], the half-maximal degradation concentration (DC50) fell in the range of 10 to 30 nM and the Dmax is over 75%.
For the compound `Cc1ncsc1-c1ccc([C@H](C)NC(=O)[C@@H]2C[C@@H](O)CN2C(=O)[C@@H](c2cc(N3CCC(CN4CCC(O[C@H]5C[C@@H](N6CCC([C@@H](C)n7cc(-c8cc(-c9ccccc9O)nnc8N)cn7)CC6)C5)CC4)CC3)no2)C(C)C)cc1` (single isomer, unassigned) [Compound 6], the DC50 was under 2.5 nM and the Dmax is over 75%.
With `Cc1ncsc1-c1ccc([C@H](C)NC(=O)[C@@H]2C[C@@H](O)CN2C(=O)[C@@H](c2cc(N3CCC(CN4CCC(O[C@H]5C[C@H](N6CCC([C@@H](C)n7cc(-c8cc(-c9ccccc9O)nnc8N)cn7)CC6)C5)CC4)CC3)no2)C(C)C)cc1` (single isomer, unassigned) [Compound 7], the 50% degradation concentration (DC50) was under 2.5 nM and the greatest degradation seen (Dmax) is over 75%.
For `Cc1ncsc1-c1ccc([C@H](C)NC(=O)C2C[C@@H](O)CN2C(=O)[C@@H](c2cc(N3CCC(CN4CC[C@@H](Oc5cc(N6C7CCC6CN(c6cc(-c8ccccc8O)nnc6N)C7)ccn5)[C@@H](F)C4)CC3)no2)C(C)C)cc1` (stereo in doubt) [Compound 49, (2S,4R)-1-[(2R)-2-[3-(4-{[(3S,4R)-4-[(4-{3-[3-amino-6-(2-hydroxyphenyl)pyridazin-4-yl]-3,8-diazabicyclo[3.2.1]octan-8-yl}pyridin-2-yl)oxy]-3-fluoropiperidin-1-yl]methyl}piperidin-1-yl)-1,2-oxazol-5-yl]-3-methylbutanoyl]-4-hydroxy-N-[(1S)-1-[4-(4-methyl-1,3-thiazol-5-yl)phenyl]ethyl]pyrrolidine-2-carboxamide], the DC50 was under 2.5 nM and the Dmax was over 75%.
The corresponding values for `Cc1ncsc1-c1ccc([C@H](C)NC(=O)C2C[C@@H](O)CN2C(=O)[C@@H](c2cc(N3CCC(CN4CC[C@H](Oc5cc(N6C7CCC6CN(c6cc(-c8ccccc8O)nnc6N)C7)ccn5)[C@H](F)C4)CC3)no2)C(C)C)cc1` (stereo in doubt) [Compound 50, (2S,4R)-1-[(2R)-2-[3-(4-{[(3R,4S)-4-[(4-{3-[3-amino-6-(2-hydroxyphenyl)pyridazin-4-yl]-3,8-diazabicyclo[3.2.1]octan-8-yl}pyridin-2-yl)oxy]-3-fluoropiperidin-1-yl]methyl}piperidin-1-yl)-1,2-oxazol-5-yl]-3-methylbutanoyl]-4-hydroxy-N-[(1S)-1-[4-(4-methyl-1,3-thiazol-5-yl)phenyl]ethyl]pyrrolidine-2-carboxamide] are under 2.5 nM and over 75%.
For `Cc1ncsc1-c1ccc([C@H](C)NC(=O)C2C[C@@H](O)CN2C(=O)[C@@H](c2cc(N3CCC(CN4CC[C@@H](Oc5cc(N6C7CCC6CN(c6cc(-c8ccccc8O)nnc6N)C7)ccn5)C(F)(F)C4)CC3)no2)C(C)C)cc1` (stereo in doubt) [Compound 53, (2S,4R)-1-[(2R)-2-[3-(4-{[(4R)-4-[(4-{3-[3-amino-6-(2-hydroxyphenyl)pyridazin-4-yl]-3,8-diazabicyclo[3.2.1]octan-8-yl}pyridin-2-yl)oxy]-3,3-difluoropiperidin-1-yl]methyl}piperidin-1-yl)-1,2-oxazol-5-yl]-3-methylbutanoyl]-4-hydroxy-N-[(1S)-1-[4-(4-methyl-1,3-thiazol-5-yl)phenyl]ethyl]pyrrolidine-2-carboxamide], in that order: 2.5 to 10 nM and over 75%.
The corresponding values for `Cc1ncsc1-c1ccc([C@H](C)NC(=O)C2C[C@@H](O)CN2C(=O)[C@@H](c2cc(N3CCC(CN4CC[C@H](Oc5cc(N6C7CCC6CN(c6cc(-c8ccccc8O)nnc6N)C7)ccn5)C(F)(F)C4)CC3)no2)C(C)C)cc1` (stereo in doubt) [Compound 54, (2S,4R)-1-[(2R)-2-[3-(4-{[(4S)-4-[(4-{3-[3-amino-6-(2-hydroxyphenyl)pyridazin-4-yl]-3,8-diazabicyclo[3.2.1]octan-8-yl}pyridin-2-yl)oxy]-3,3-difluoropiperidin-1-yl]methyl}piperidin-1-yl)-1,2-oxazol-5-yl]-3-methylbutanoyl]-4-hydroxy-N-[(1S)-1-[4-(4-methyl-1,3-thiazol-5-yl)phenyl]ethyl]pyrrolidine-2-carboxamide] are 2.5 to 10 nM and over 75%.
`CC(C)[C@H](C(=O)N1C[C@H](O)C[C@H]1C(=O)N[C@@H](C)c1ccc(C#N)cc1)c1cc(O[C@H]2C[C@H](CN3CCC(O[C@H]4C[C@H](Oc5cc(N6C7CCC6CN(c6cc(-c8ccccc8O)nnc6N)C7)ccn5)C4)CC3)C2)no1` [Compound 1, (2S,4R)-N-[(1S)-1-(4-cyanophenyl)ethyl]-4-hydroxy-1-[(2S)-3-methyl-2-{3-[(1r,3r)-3-({4-[(1r,3r)-3-[(4-{3-[3-amino-6-(2-hydroxyphenyl)pyridazin-4-yl]-3,8-diazabicyclo[3.2.1]octan-8-yl}pyridin-2-yl)oxy]cyclobutoxy]piperidin-1-yl}methyl)cyclobutoxy]-1,2-oxazol-5-yl}butanoyl]pyrrolidine-2-carboxamide] gave a DC50 of at least 30 nM.
Still for that read-out and setting: to `CC(C)[C@H](C(=O)N1C[C@H](O)C[C@H]1C(=O)N[C@@H](C)c1ccc(-c2ccnn2C)cc1)c1cc(N2CCC(CN3CCC(O[C@H]4C[C@H](Oc5cc(N6CCN(c7cc(-c8ccccc8O)nnc7N)CC6)ccn5)C4)CC3)CC2)no1` [Compound 2, (2S,4R)-4-hydroxy-N-[(1S)-1-[4-(1-methyl-1H-pyrazol-5-yl)phenyl]ethyl]-1-[(2S)-3-methyl-2-{3-[4-({4-[(1r,3r)-3-[(4-{4-[3-amino-6-(2-hydroxyphenyl)pyridazin-4-yl]piperazin-1-yl}pyridin-2-yl)oxy]cyclobutoxy]piperidin-1-yl}methyl)piperidin-1-yl]-1,2-oxazol-5-yl}butanoyl]pyrrolidine-2-carboxamide] belongs at least 30 nM; to `CC(C)[C@@H](C(=O)N1C[C@H](O)C[C@H]1C(=O)N[C@H](C)c1cc(F)c(C#N)cc1F)c1cc(N2CCC(CN3CCC(O[C@H]4C[C@H](Oc5cc(N6C7CCC6CN(c6cc(-c8ccccc8O)nnc6N)C7)ccn5)C4)CC3)CC2)no1` [Compound 3, (2S,4R)-N-[(1R)-1-(4-cyano-2,5-difluorophenyl)ethyl]-4-hydroxy-1-[(2R)-3-methyl-2-{3-[4-({4-[(1r,3r)-3-[(4-{3-[3-amino-6-(2-hydroxyphenyl)pyridazin-4-yl]-3,8-diazabicyclo[3.2.1]octan-8-yl}pyridin-2-yl)oxy]cyclobutoxy]piperidin-1-yl}methyl)piperidin-1-yl]-1,2-oxazol-5-yl}butanoyl]pyrrolidine-2-carboxamide], at least 30 nM.
